Source: patent publication US20100303903A1, “METHODS OF ENHANCING SELECTIVE SEROTONIN REUPTAKE INHIBITOR EFFECTS IN MAMMALS” (SHIRE LLC, priority 2009, published 2010)

Experiments:
[1] = test system: mouse; test: Behavioural despair test in the mouse (forced swim; duration of immobility and latency to immobility); assay type: in vivo, Male Rj: NMRI mice; conditions: for DURATION OF IMMOBILITY % change / LATENCY % change: (a) compared with vehicle control
Protocol: Male Rj: NMRI mice (Elevage Janvier, 53940 Le Genest-Saint-Isle, France) having a body weight of between 22 and 29 g were used in the study. The mice were stabilised for 5 days prior to assessment with free access to food and water. […] […] The control vehicle was distilled water. The substances were evaluated in comparison with the control vehicle and were administered dissolved in distilled water.
The method, which detects antidepressant activity, follows that described by Porsolt et al (Arch. Int. Pharmacodyn., 1977, 229, 327-336). Mice forced to swim in a situation from which they cannot escape rapidly become immobile. Antidepressants decrease the duration of immobility.
Mice were individually placed in a cylinder (height=24 cm; diameter=13 cm) containing 10 cm water (22° C.) from which they cannot escape. The mice were placed in the water for 6 minutes and the duration of immobility during the last 4 minutes was measured. The latency to the first bout of immobility was also recorded.
10 mice were studied per group. The test was performed blind.
L-lysine-d-amphetamine (Vyvanse) (8, 16 and 32 mg/kg) was administered 90 minutes before the test, alone or in combination and compared with a vehicle control group.
Imipramine (128 mg/kg p.o.), administered under the same experimental conditions, was used as a reference substance.
Data were analysed by comparing treated groups with vehicle control using unpaired Student's t tests. In addition, groups treated with combinations of substances were compared with groups administered appropriate substances alone using unpaired Student's t tests.
The mouse behavioural despair test is based on the observation that mice, when forced to swim in a situation from which there is no escape, after an initial period of vigorous activity will eventually cease to move altogether making only those movements necessary to keep the head above the water. This behavioural immobility is thought to indicate a state of despair in which the mice have learned that escape is impossible and have resigned themselves to the experimental conditions. This immobility is reduced by anti-depression treatments.

[2] = test system: mice; test: Light-dark box test of anxiety; assay type: in vivo; conditions: 16 and 32 mg/kg, alone
Excerpt: The light/dark test is based on the innate aversion of rodents to brightly/illuminated areas and on the spontaneous exploratory behaviour of rodents in response to mild stress, that is, novel environment and light. The test apparatus consists of a compartment box divided between a dark safe compartment and an illuminated aversive compartment.

[3] = Table 2, 128 mg/kg p.o. -60 min
[4] = Table 3, 128 mg/kg p.o. -90 min

SMILES: CN(C)CCCN1c2ccccc2CCc2ccccc21 [Imipramine]
- DURATION OF IMMOBILITY mean ± s.e.m. [1, 3]: 70.4 ± 21.4 s
- LATENCY mean ± s.e.m. [1, 3]: 243.6 ± 32.7 s
- DURATION OF IMMOBILITY % change [1, 3]: −67%
- LATENCY % change [1, 3]: +277%
- DURATION OF IMMOBILITY mean ± s.e.m. [1, 4]: 100.6 ± 23.5 s
- DURATION OF IMMOBILITY % change [1, 4]: −48%

SMILES: CN[C@H]1CC[C@@H](c2ccc(Cl)c(Cl)c2)c2ccccc21 [Sertraline, sertraline]
- DURATION OF IMMOBILITY mean ± s.e.m. ([1]; Table 3, 16 mg/kg p.o. -90 min): 162.7 ± 27.5 s
- DURATION OF IMMOBILITY % change ([1]; Table 3, 16 mg/kg p.o. -90 min): −16%

SMILES: C[C@@H](Cc1ccccc1)NC(=O)[C@@H](N)CCCCN [Vyvanse, N-[(1S)-1-methyl-2-phenylethyl]-L-lysinamide]
- antidepressant-like activity ([1]; 16 and 32 mg/kg, alone): presence of antidepressant-like activity
- DURATION OF IMMOBILITY mean ± s.e.m. ([1]; Table 2, 16 mg/kg p.o. -60 min): 173.6 ± 18.8 s
- LATENCY mean ± s.e.m. ([1]; Table 2, 16 mg/kg p.o. -60 min): 100.0 ± 21.3 s
- DURATION OF IMMOBILITY % change ([1]; Table 2, 16 mg/kg p.o. -60 min): −19%
- LATENCY % change ([1]; Table 2, 16 mg/kg p.o. -60 min): +55%
- DURATION OF IMMOBILITY mean ± s.e.m. ([1]; Table 2, 32 mg/kg p.o. -60 min): 160.3 ± 22.6 s
- LATENCY mean ± s.e.m. ([1]; Table 2, 32 mg/kg p.o. -60 min): 104.3 ± 18.2 s
- DURATION OF IMMOBILITY % change ([1]; Table 2, 32 mg/kg p.o. -60 min): −25%
- LATENCY % change ([1]; Table 2, 32 mg/kg p.o. -60 min): +61%
- DURATION OF IMMOBILITY mean ± s.e.m. ([1]; Table 3, 8 mg/kg p.o. -90 min): 208.0 ± 7.3 s
- DURATION OF IMMOBILITY % change ([1]; Table 3, 8 mg/kg p.o. -90 min): +7%
- DURATION OF IMMOBILITY mean ± s.e.m. ([1]; Table 3, 16 mg/kg p.o. -90 min): 176.8 ± 14.8 s
- DURATION OF IMMOBILITY % change ([1]; Table 3, 16 mg/kg p.o. -90 min): −9%
- DURATION OF IMMOBILITY mean ± s.e.m. ([1]; Table 3, 32 mg/kg p.o. -90 min): 123.1 ± 20.8 s
- DURATION OF IMMOBILITY % change ([1]; Table 3, 32 mg/kg p.o. -90 min): −37%
- anxiogenic activity [2]: absence of any anxiogenic activity
